{
  "source": "patent US12540131B2",
  "about": "(Merck Sharp & Dohme LLC, priority 2019, dated 2026)",
  "data": [
    {"molecular_target": "GST tagged truncated human mutant G2019S LRRK2 (Homo sapiens (Human), UniProt Q5S007, G2019S)", "sequence (Q5S007 970-2527 G2019S)": "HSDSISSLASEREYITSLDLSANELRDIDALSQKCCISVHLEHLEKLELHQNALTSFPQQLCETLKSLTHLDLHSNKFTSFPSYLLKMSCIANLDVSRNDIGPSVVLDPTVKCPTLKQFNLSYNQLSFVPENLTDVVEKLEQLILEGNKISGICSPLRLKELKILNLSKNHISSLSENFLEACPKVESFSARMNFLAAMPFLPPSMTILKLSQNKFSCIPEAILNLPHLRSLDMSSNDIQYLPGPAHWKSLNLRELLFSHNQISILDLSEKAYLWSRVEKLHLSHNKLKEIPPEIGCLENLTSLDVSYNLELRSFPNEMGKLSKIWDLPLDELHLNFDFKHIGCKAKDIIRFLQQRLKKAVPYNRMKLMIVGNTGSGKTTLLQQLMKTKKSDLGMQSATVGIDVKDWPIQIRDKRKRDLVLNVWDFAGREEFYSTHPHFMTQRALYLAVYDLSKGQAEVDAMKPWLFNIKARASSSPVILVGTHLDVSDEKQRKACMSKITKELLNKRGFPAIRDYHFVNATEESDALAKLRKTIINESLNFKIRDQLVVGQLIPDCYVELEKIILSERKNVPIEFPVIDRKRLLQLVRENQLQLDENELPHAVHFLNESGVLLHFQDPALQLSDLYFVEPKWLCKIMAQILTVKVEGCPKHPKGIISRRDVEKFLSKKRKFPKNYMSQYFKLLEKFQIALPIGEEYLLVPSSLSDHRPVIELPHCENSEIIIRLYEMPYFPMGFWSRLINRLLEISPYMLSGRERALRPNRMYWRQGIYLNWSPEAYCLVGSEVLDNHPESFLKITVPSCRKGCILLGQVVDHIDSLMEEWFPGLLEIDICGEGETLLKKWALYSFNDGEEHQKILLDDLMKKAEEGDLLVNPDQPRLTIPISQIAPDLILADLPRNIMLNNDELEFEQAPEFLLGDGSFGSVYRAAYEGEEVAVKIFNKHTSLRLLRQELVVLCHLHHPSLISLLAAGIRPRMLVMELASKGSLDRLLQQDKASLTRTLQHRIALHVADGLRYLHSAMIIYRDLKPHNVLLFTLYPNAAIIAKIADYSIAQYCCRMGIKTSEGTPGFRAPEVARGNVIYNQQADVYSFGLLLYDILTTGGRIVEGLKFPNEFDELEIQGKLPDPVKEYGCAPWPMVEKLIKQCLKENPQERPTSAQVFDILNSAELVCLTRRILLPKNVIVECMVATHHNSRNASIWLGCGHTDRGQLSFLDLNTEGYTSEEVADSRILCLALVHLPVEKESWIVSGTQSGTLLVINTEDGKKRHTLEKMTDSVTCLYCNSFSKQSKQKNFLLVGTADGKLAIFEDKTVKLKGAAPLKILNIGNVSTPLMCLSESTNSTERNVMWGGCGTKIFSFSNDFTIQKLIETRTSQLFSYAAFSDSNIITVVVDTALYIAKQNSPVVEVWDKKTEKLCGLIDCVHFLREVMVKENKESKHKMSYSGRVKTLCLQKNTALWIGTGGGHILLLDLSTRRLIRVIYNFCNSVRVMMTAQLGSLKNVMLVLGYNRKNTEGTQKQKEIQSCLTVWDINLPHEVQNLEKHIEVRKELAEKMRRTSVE", "assay": "LRRK2 Km ATP LanthaScreen Assay", "type": "biochemical", "conditions": "G2019S LRRK2, 134 μM ATP (Km ATP), mean values", "procedure": "(§1) General Experimental Information: • Unless otherwise noted, all reactions are magnetically stirred. Unless otherwise noted, when diethyl ether is used in the experiments described below, it is Fisher ACS certified material and is stabilized with BHT. Unless otherwise noted, “concentrated” and/or “solvent removed under reduced pressure” means evaporating the solvent from a solution or mixture using a rotary evaporator or vacuum pump. Unless otherwise noted, flash chromatography is carried out on a Teledyne Isco (Lincoln, NE), Analogix (Burlington, WI), or Biotage (Stockholm, SWE) automated chromatography system using a commercially available cartridge as the column. Columns may be purchased from Teledyne Isco, Analogix, Biotage, Varian (Palo Alto, CA), or Supelco (Bellefonte, PA) and are usually filled with silica gel as the stationary phase. Reverse phase prep-HPLC conditions, where used, can be found at the end of each experimental section. Aqueous solutions were concentrated on a Genevac (Ipswich, ENG) or by freeze-drying/lyophilization. Unless otherwise noted, all LRRK2 pIC50 data presented in tables refers to the LRRK2 G2019S Km ATP LanthaScreen™ assay (Life Technologies Corp., Carlsbad, CA) that is described in the Biological Assay section.\n(§2) The pIC50 values reported herein were measured as follows.\n(§3) Biological Assay: LRRK2 Km ATP LanthaScreen™ Assay\n(§4) Compound potency against LRRK2 kinase activity was determined using LanthaScreen™ technology from Life Technologies Corporation (Carlsbad, CA) using a GST20 tagged truncated human mutant G2019S LRRK2 in the presence of the fluorescein-labeled peptide substrate LRRKtide® (LRRK2 phosphorylated ezrin/radixin/moesin (ERM)), also from Life Technologies. The data presented for the Km ATP LanthaScreen™ Assay represents mean IC50 values based on several test results and may have reasonable deviations depending on the specific conditions and reagents used. Km is the Michaelis constant of an enzyme and is defined as the concentration of native substrate (ATP for a kinase) which permits the enzyme to achieve half Vmax (Vmax=rate of reaction when the enzyme is saturated with substrate). IC50 (half-maximal inhibitory concentration) represents the concentration of inhibitor required to inhibit LRRK2 kinase activity by 50%. Assays were performed in the presence of 134 μM ATP (Km ATP). Upon completion, the assay was stopped, and phosphorylated substrate detected with a terbium (Tb)-labeled anti-pERM antibody (cat. no. PV4898). The compound dose response was prepared by diluting a 10 mM stock of compound to a maximum concentration of 9.99 μM in 100% DMSO, followed by custom fold serial dilution in DMSO nine times. 20 nL of each dilution was spotted via a Labcyte Echo onto a 384-well black-sided plate (Corning 3575) followed by 15 μl of a 1.25 nM enzyme solution in 1× assay buffer (50 mM Tris pH 8.5, 10 mM MgCl2, 0.01% Brij-35, 1 mM EGTA, 2 mM dithiothreitol, 0.05 mM sodium orthovanadate). Following a 15-minute incubation period at RT, the kinase reaction was started with the addition of 5 μl of 400 nM fluorescein-labeled LRRKtide® (LRRK2 phosphorylated ezrin/radixin/moesin (ERM)) peptide substrate and 134 μM ATP solution in 1× assay buffer. The reaction was allowed to progress at ambient temperature for 90 minutes. The reaction was then stopped by the addition of 20 μl of TR-FRET Dilution Buffer (Life Technologies, Carlsbad, CA) containing 2 nM Tb-labeled anti-phospho LRRKtide® (LRRK2 phosphorylated ezrin/radixin/moesin (ERM)) antibody and 10 mM EDTA (Life Technologies, Carlsbad, CA). After an incubation period of 1 h at RT, the plate was read on an EnVision® multimode plate reader (Perkin Elmer, Waltham, MA) with an excitation wavelength of 337 nm (Laser) and a reading emission at both 520 and 495 nm. Compound IC50 values were interpolated from nonlinear regression best-fits of the log of the final compound concentration, plotted as a function of the 520/495-nm emission ratio using activity base “Abase”). […]", "values": [
      {"smiles": "Cc1cc2cnc(Nc3cnn(C4CC4(F)F)c3Cl)nc2cc1[C@H]1CCN(C2COC[C@@H]2O)C[C@@H]1F", "note": "(single isomer, unassigned) [Ex-4.139, (R)(3S,4S)(3S,4S) or (R)(3S,4S)(3R,4R) or (R)(3R,4R)(3S,4S) or (R)(3R,4R)(3R,4R) or (S)(3S,4S)(3S,4S) or (S)(3S,4S)(3R,4R) or (S)(3R,4R)(3S,4S) or (S)(3R,4R)(3R,4R) 4-[4-(2-{[5-chloro-1-(2,2-difluorocyclopropyl)-1H-pyrazol-4-yl]amino}-6-methylquinazolin-7-yl)-3-fluoropiperidin-1-yl]oxolan-3-ol]", "LRRK2 pIC50": ">9.20"},
      {"smiles": "CN1CC[C@@H](c2cc3nc(Nc4cnn(CC(C)(C)O)c4Cl)ncc3cc2Cl)[C@H](F)C1", "note": "(single isomer, unassigned) [Ex-4.22, (3S,4S) or (3R,4R) 1-(5-chloro-4-{[6-chloro-7-(3-fluoro-1-methylpiperidin-4-yl)quinazolin-2-yl]amino}-1H-pyrazol-1-yl)-2-methylpropan-2-ol]", "LRRK2 pIC50": ">9.20"},
      {"smiles": "Cc1c(Nc2ncc3cc(Cl)c(C4CCN(C5COC5)CC4)cc3n2)cnn1CC1(C#N)CC1", "note": "[Ex-2.15, 1-{[4-({6-chloro-7-[1-(oxetan-3-yl)piperidin-4-yl]quinazolin-2-yl}amino)-5-methyl-1H-pyrazol-1-yl]methyl}cyclopropane-1-carbonitrile]", "LRRK2 pIC50": ">9.20"},
      {"smiles": "CC1OCC1N1CC[C@H](c2cc3nc(Nc4cnn(CC(C)(C)O)c4Cl)ncc3cc2Cl)[C@@H](F)C1", "note": "(single isomer, unassigned) [Ex-4.74, (3S,4S)(2R,3R) or (3S,4S)(2S,3S) or (3R,4R)(2R,3R) or (3R,4R)(2S,3S) or (3R,4R)(2S,3R) or (3R,4R)(2R,3S) or (3S,4S)(2S,3R) or (3S,4S)(2R,3S) 1-[5-chloro-4-({6-chloro-7-[3-fluoro-1-(2-methyloxetan-3-yl)piperidin-4-yl]quinazolin-2-yl}amino)-1H-pyrazol-1-yl]-2-methylpropan-2-ol]", "LRRK2 pIC50": 9.19},
      {"smiles": "Cn1ncc(Nc2ncc3cc(Cl)c([C@@H]4CCN([C@H]5COC[C@H]5O)C[C@H]4F)cc3n2)c1Cl", "note": "(single isomer, unassigned) [Ex-4.185, (3S,4S)(3S,4S) or (3S,4S)(3R,4R) or (3R,4R)(3S,4S) or (3R,4R)(3R,4R) 4-(4-{6-chloro-2-[(5-chloro-1-methyl-1H-pyrazol-4-yl)amino]quinazolin-7-yl}-3-fluoropiperidin-1-yl)oxolan-3-ol]", "LRRK2 pIC50": 9.17},
      {"smiles": "CC1OCC1N1CCC(c2cc3nc(Nc4cnn(C5CC5)c4Cl)ncc3cc2Cl)CC1", "note": "(single isomer, unassigned) [Ex-4.47, (2R,3R) or (2S,3S) or (2S,3R) or (2R,3S) 6-chloro-N-(5-chloro-1-cyclopropyl-1H-pyrazol-4-yl)-7-[1-(2-methyloxetan-3-yl)piperidin-4-yl]quinazolin-2-amine]", "LRRK2 pIC50": 7.62},
      {"smiles": "CC(C)(O)Cn1ncc(Nc2ncc3cc(Cl)c(C4CCNCC4)cc3n2)c1Cl", "note": "[Ex-4.94, 1-(5-chloro-4-{[6-chloro-7-(piperidin-4-yl)quinazolin-2-yl]amino}-1H-pyrazol-1-yl)-2-methylpropan-2-ol]", "LRRK2 pIC50": 8.46},
      {"smiles": "Cc1c(Nc2ncc3cc(Cl)c(C4CCN(CC5(O)CCOCC5)CC4)cc3n2)cnn1C1CC1", "note": "[Ex-4.210, 4-[(4-{6-chloro-2-[(1-cyclopropyl-5-methyl-1H-pyrazol-4-yl)amino]quinazolin-7-yl}piperidin-1-yl)methyl]oxan-4-ol]", "LRRK2 pIC50": 8.55},
      {"smiles": "Cn1nc(C(F)(F)F)cc1Nc1ncc2cc(Cl)c(C3CCN([C@]4(C)COC[C@@H]4O)CC3)cc2n1", "note": "(single isomer, unassigned) [Ex-2.89, (3S,4S) or (3R,4R) 4-[4-(6-chloro-2-{[1-methyl-3-(trifluoromethyl)-1H-pyrazol-5-yl]amino}quinazolin-7-yl)piperidin-1-yl]-4-methyloxolan-3-ol]", "LRRK2 pIC50": 7.39},
      {"smiles": "Cc1cc2cnc(Nc3cnn(C)c3Cl)nc2cc1C1CCN([C@]2(C)COC[C@@H]2O)CC1", "note": "(single isomer, unassigned) [Ex-2.80, (3S,4S) or (3R,4R) 4-(4-{2-[(5-chloro-1-methyl-1H-pyrazol-4-yl)amino]-6-methylquinazolin-7-yl}piperidin-1-yl)-4-methyloxolan-3-ol]", "LRRK2 pIC50": 7.14},
      {"smiles": "COC(C)(C)C12CC(n3cc(Nc4ncc5cc(Cl)c(C6CCN(C7(C)COC7)CC6)cc5n4)cn3)(C1)C2", "note": "[Ex-2.56, 6-chloro-N-{1-[3-(2-methoxypropan-2-yl)bicyclo[1.1.1]pentan-1-yl]-1H-pyrazol-4-yl}-7-[1-(3-methyloxetan-3-yl)piperidin-4-yl]quinazolin-2-amine]", "LRRK2 pIC50": 8.75},
      {"smiles": "CC(=O)N1CCC(c2cc3nc(Nc4cnn(C5CC5)c4Cl)ncc3cc2Cl)C[C@@H]1C", "note": "(stereo partly drawn) [Ex-4.8]", "LRRK2 pIC50": 7.39}
    ]},
    {"molecular_target": "GST tagged truncated human mutant G2019S LRRK2 (Homo sapiens (Human), UniProt Q5S007, G2019S)", "assay": "LRRK2 Km ATP LanthaScreen Assay", "type": "biochemical", "conditions": "G2019S LRRK2, 134 μM ATP (Km ATP), mean values; read-out: LRRK2 pIC50 (converted)", "procedure": "as §1, §2, §3, §4", "units": {"IC50": "nM"}, "values": [
      {"smiles": "Cc1c(Nc2ncc3cc(Cl)c(C4CCN(CC(O)CC(F)(F)F)CC4)cc3n2)cnn1C1CC1", "note": "(single isomer, unassigned) [Ex-4.191, (S) or (R) 1-(4-{6-chloro-2-[(1-cyclopropyl-5-methyl-1H-pyrazol-4-yl)amino]quinazolin-7-yl}piperidin-1-yl)-4,4,4-trifluorobutan-2-ol]", "IC50": "< 0.631"},
      {"smiles": "Cn1nc(Cl)cc1Nc1ncc2cc(Cl)c(C3CCN([C@@]4(C)COC[C@H]4O)CC3)cc2n1", "note": "(single isomer, unassigned) [Ex-10.1, (3S,4S) or (3R,4R) 4-(4-(6-chloro-2-((3-chloro-1-methyl-1H-pyrazol-5-yl)amino)quinazolin-7-yl)piperidin-1-yl)-4-methyltetrahydrofuran-3-ol]", "IC50": 0.776},
      {"smiles": "Cc1nsc(Nc2ncc3cc(Cl)c(C4CCN(C5CCOC5)CC4)cc3n2)c1Cl", "note": "(single isomer, unassigned) [Ex-8.18, (S) or (R) 6-chloro-N-(4-chloro-3-methyl-1,2-thiazol-5-yl)-7-[1-(oxolan-3-yl)piperidin-4-yl]quinazolin-2-amine]", "IC50": "< 0.631"},
      {"smiles": "Cc1c(Nc2ncc3cc(Cl)c(C4CCN(CC(O)c5ccc(C#N)cc5)CC4)cc3n2)cnn1C1CC1", "note": "(single isomer, unassigned) [Ex-4.220, (S) or (R) 4-[2-(4-{6-chloro-2-[(1-cyclopropyl-5-methyl-1H-pyrazol-4-yl)amino]quinazolin-7-yl}piperidin-1-yl)-1-hydroxyethyl]benzonitrile]", "IC50": 6.17},
      {"smiles": "Cc1nsc(Nc2ncc3cc(Cl)c([C@@H]4CCN(C5COC5)C[C@H]4F)cc3n2)c1Cl", "note": "(single isomer, unassigned) [Ex-4.87, (3S,4S) or (3R,4R) 6-chloro-N-(4-chloro-3-methyl-1,2-thiazol-5-yl)-7-[3-fluoro-1-(oxetan-3-yl)piperidin-4-yl]quinazolin-2-amine]", "IC50": 12.6},
      {"smiles": "CC(n1ncc(Nc2ncc3cc(Cl)c(C4CCN(C5COC5)CC4)cc3n2)c1Cl)C(F)(F)F", "note": "(single isomer, unassigned) [Ex-8.3, (S) or (R) 6-chloro-N-[5-chloro-1-(1,1,1-trifluoropropan-2-yl)-1H-pyrazol-4-yl]-7-[1-(oxetan-3-yl)piperidin-4-yl]quinazolin-2-amine]", "IC50": "< 0.631"}
    ]}
  ]
}
